According to paper PMC7115544 (European Journal of Medicinal Chemistry, 2010):
Read-outs that look alike come from different tables or passages of the source.

B1: UDA: reference substance in Table 4, not defined in the text (protein, UniProt P11218 24-372, looked up)
Lectin/endochitinase 1: QRCGSQGGGGTCPALWCCSIWGWCGDSEPYCGRTCENKCWSGERSDHRCGAAVGNPPCGQDRCCSVHGWCGGGNDYCSGSKCQYRCSSSVRGPRVALSGNSTANSIGNVVVTEPLFDQMFSHRKDCPSQGFYSYHSFLVAAESFPAFGTIGDVATRKREVAAFLAHISQATSGERSDVENPHAWGLCHINTTTVTENDFCTSSDWPCAAGKKYSPRGPIQLTHNFNYGLAGQAIGEDLIQNPDLVEKDPIISFKTALWFWMSQHDNKPSCHDIVLNANSAANRIPNKGVIGNIISRAFGHDDFAVRSSSIGFYKRYCDMLGVSYGHDLKYWFDNTPSSEFQRIQMRVAA

How the values were obtained:
Para influenza-3 virus = assay: organism not typed; format: cell-based; conditions: Vero, read-out: EC50 Para influenza-3 virus
MDCK cells [1] = assay: Cytotoxicity in MDCK cell cultures; format: cell-based, canine
[2] = system: Herpes simplex virus-1 TK- KOS ACVr; format: cell-based
[3] = system: Herpes simplex virus-2 (G); assay: microbe, parasite or virus in culture; format: cell-based
HEL cell cultures = conditions: human
Feline Herpes Virus = assay: Anti-Feline Herpes Virus activity in CRFK cell cultures; format: cell-based; conditions: for EC50: CRFK, read-out: EC50 Feline Herpes Virus
[4] = system: Herpes simplex virus-1 (KOS); assay: microbe, parasite or virus in culture; format: cell-based
Vero cell cultures = conditions: African green monkey
HeLa cell cultures = conditions: human
Reovirus-1 = assay: organism not typed; format: cell-based; conditions: Vero, read-out: EC50 Reovirus-1
Vaccinia virus = assay: microbe, parasite or virus in culture; format: cell-based; conditions: Orthopoxvirus vaccinia, HEL, read-out: EC50 Vaccinia virus
[5] = system: Vesicular stomatitis virus; assay: microbe, parasite or virus in culture; format: cell-based; conditions: HEL, read-out: EC50 Vesicular stomatitis virus
Influenza B = assay: microbe, parasite or virus in culture; format: cell-based
MDCK cells [6] = system: MDCK cells
in vitro = conditions: dog
[7] = system: Feline Corona Virus (FIPV); assay: Anti-Feline Corona Virus activity in CRFK cell cultures; format: cell-based; conditions: MTS assay
[8] = microscopically detectable alteration of normal cell morphology

Row | Molecule | EC50 (Para influenza-3 virus) | Minimum cytotoxic concentration (HEL cell cultures) | EC50 (Feline Herpes Virus) | Minimum cytotoxic concentration (Vero cell cultures) [µg/mL] | EC50 (Reovirus-1) | further results
1 | O=c1c2ccccc2nc(-c2ccccc2)n1/N=C/c1ccccc1O [Compound 2a, 3-[(2-Hydroxy-benzylidine)-amino]-2-phenyl-3H-quinazolin-4one] | > 20 µg/mL | 100 µg/mL | > 4 µg/mL | 100 | – | Cytotoxicity Minimum cytotoxic concentration (MDCK cells [1]; [8]): ≥0.8 µg/mL; selectivity index, herpes simplex virus-1 TK- KOS ACVr [2]: 100; selectivity index, herpes simplex virus-2 (G) [3]: 100; selectivity index, herpes simplex virus-1 (KOS) [4]: 100
2 | C/C(=N\n1c(-c2ccccc2)nc2ccccc2c1=O)c1ccc(O)cc1 [Compound 2i, 3-[1-(4-Hydroxy-phenyl)-ethylideneamino]-2-phenyl-3H-quinazolin-4one] | > 100 µg/mL | >100 µg/mL | > 100 µg/mL | >100 | > 100 µg/mL | Cytotoxicity Minimum cytotoxic concentration (MDCK cells [1]; [8]): >100 µg/mL; Minimum cytotoxic concentration (HeLa cell cultures): >100 µg/mL
3 | C/C(=N\n1c(-c2ccccc2)nc2ccccc2c1=O)c1ccccc1 [Compound 2h, 2-Phenyl-3(1-phenyl-ethylideneamino)-3H-quinazolin-4one] | > 20 µg/mL | >100 µg/mL | > 0.8 µg/mL | 100 | > 20 µg/mL | Cytotoxicity Minimum cytotoxic concentration (MDCK cells [1]; [8]): 100 µg/mL; Minimum cytotoxic concentration (HeLa cell cultures): >100 µg/mL
4 | Nc1ncnc2c1ncn2C[C@H](O)CO [(S)-DHPA, reference compound] | > 250 µM | – | – | – | > 250 µM | –
5 | Nc1nc(O)c2ncn(COC(CO)CO)c2n1 [Ganciclovir, reference compound] | – | >100 µM | 0.8 µM | – | – | EC50 (Vaccinia virus): > 100 µM; EC50 [5]: > 100 µM
6 | Oseltamivir carboxylate | – | – | – | – | – | Cytotoxicity Minimum cytotoxic concentration (MDCK cells [1]; reference compounds): >100 µM; EC50 (Influenza B; read-out: Antiviral EC50 Influenza B MTS, […], MTS assay, reference compounds): 1.5 µM; CC50 (MDCK cells [6]): > 100 µM
7 | O=c1c2ccccc2nc(-c2ccccc2)n1/N=C/c1ccccc1 [Compound 2f, 3-(Benzylidine-amino)-2-phenyl-3H-quinazolin-4one] | > 4 µg/mL | – | > 0.8 µg/mL | – | > 4 µg/mL | –
8 | COc1ccc(/C=N/n2c(-c3ccccc3)nc3ccccc3c2=O)cc1O [Compound 2k, 3-[(3-Hydroxy-4-methoxy-benzylidine)-amino]-2-phenyl-3H-quinazolin-4one] | > 20 µg/mL | 100 µg/mL | > 20 µg/mL | 100 | > 20 µg/mL | –
9 | COc1ccccc1/C=N/n1c(-c2ccccc2)nc2ccccc2c1=O [Compound 2l, 3-[(2-Methoxy-benzylidine)-amino]-2-phenyl-3H-quinazolin-4one] | > 20 µg/mL | 100 µg/mL | > 4 µg/mL | 100 | > 20 µg/mL | –
10 | O=c1c2ccccc2nc(-c2ccccc2)n1/N=C/c1cccc([N+](=O)[O-])c1 [Compound 2b, 3-[(3-Nitro-benzylidine)-amino]-2-phenyl-3H-quinazolin-4one] | > 4 µg/mL | ≥20 µg/mL | > 4 µg/mL | – | > 4 µg/mL | –
11 | COc1ccc(/C=N/n2c(-c3ccccc3)nc3ccccc3c2=O)cc1 [Compound 2c, 3-[(4-Methoxy-benzylidine)-amino]-2-phenyl-3H-quinazolin-4one] | > 20 µg/mL | – | > 4 µg/mL | 100 | > 20 µg/mL | –
12 | O=c1c2ccccc2nc(-c2ccccc2)n1/N=C/c1ccc(Cl)cc1 [Compound 2j, 3-[(4-Chloro-benzylidine)-amino]-2-phenyl-3H-quinazolin-4one] | > 4 µg/mL | 100 µg/mL | > 20 µg/mL | – | > 4 µg/mL | –
13 | NC12CC3CC(CC(C3)C1)C2 [Amantadin, reference compound] | – | – | – | – | – | Cytotoxicity Minimum cytotoxic concentration (MDCK cells [1]; reference compounds): >1000 µM; CC50 (in vitro): > 1000 µM
14 | O=c1c2ccccc2nc(-c2ccccc2)n1/N=C/c1ccc(O)cc1 [Compound 2g, 3-[(4-Hydroxy-benzylidine)-amino]-2-phenyl-3H-quinazolin-4one] | > 20 µg/mL | 100 µg/mL | > 20 µg/mL | 100 | > 20 µg/mL | Minimum cytotoxic concentration (HeLa cell cultures): 100 µg/mL
15 | NC(=O)c1ncn([C@@H]2O[C@H](CO)[C@@H](O)[C@H]2O)n1 [Ribavirin, reference compound] | – | – | – | – | > 250 µM | Cytotoxicity Minimum cytotoxic concentration (MDCK cells [1]; reference compounds): ≥100 µM; EC50 (Vaccinia virus): > 250 µM; EC50 ([3]; Human alphaherpesvirus 2, HEL, read-out: EC50 Herpes simplex virus-2 (G)): > 250 µM; EC50 (Influenza B; Influenza B virus, MDCK, read-out: Antiviral EC50 Influenza B Visual CPE score): 9 µM; EC50 ([4]; Human alphaherpesvirus 1, HEL, read-out: EC50 Herpes simplex virus-1 (KOS)): > 250 µM
16 | CC(N)C12CC3CC(CC(C3)C1)C2 (stereo not shown) [Rimantadin] | – | – | – | – | – | CC50 (in vitro): 472 µM
17 | B1 | – | – | – | – | – | EC50 Feline Corona Virus (FIPV) [7]: 11.7 µg/mL; EC50 Feline Herpes Virus (Feline Herpes Virus; CRFK cell cultures, MTS assay): 53.1 µg/mL
